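Where inhibition never reached the appropriate level, the endpoint shown equals the highest concentration tested. Otherwise, values were interpolated linearly from a five-concentration, 48-hour dose response in 96-well plates. The concentration for 50% growth inhibition is given as GI50.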 The source made the active and inactive calls. Cut-off read from the data, not from the text of the source: active = GI50 up to about 1.1 µM and inactive = higher.
What was measured:
Experiment in all cases: DTP human tumour cell line panel, 48 h
A498 = system: A498
ACHN = system: ACHN
BT-549 = system: BT-549
EKVX = system: EKVX
HCT-116 = system: HCT-116
HCT-15 = system: HCT-15
HL-60 = system: HL-60
HT-29 = system: HT-29
M14 = system: M14
MCF7 = system: MCF7
MDA-MB-435 = system: MDA-MB-435
Malme-3M = system: Malme-3M
NCI-H226 = system: NCI-H226
NCI-H522 = system: NCI-H522
OVCAR-5 = system: OVCAR-5
OVCAR-8 = system: OVCAR-8
SK-OV-3 = system: SK-OV-3
U-251 = system: U-251
UACC-257 = system: UACC-257
UO-31 = system: UO-31

Structure (SMILES)	GI50 (A498)	GI50 (ACHN)	GI50 (BT-549)	GI50 (EKVX)	GI50 (HCT-116)	GI50 (HCT-15) [µM]	GI50 (HL-60)	GI50 (HT-29)	GI50 (M14)	GI50 (MCF7)	GI50 (MDA-MB-435)	GI50 (Malme-3M)	GI50 (NCI-H226)	GI50 (NCI-H522)	GI50 (OVCAR-5)	GI50 (OVCAR-8)	GI50 (SK-OV-3)	GI50 (U-251)	GI50 (UACC-257)	GI50 (UO-31)
Cc1c(CCCl)c(Cl)n2c(nc3ccccc32)c1C#N	1.37 µM (inactive)	0.836 µM (active)	2.21 µM (inactive)	3.21 µM (inactive)	0.229 µM (active)	0.644	0.107 µM (active)	1.42 µM (inactive)	1.14 µM (inactive)	0.653 µM (active)	0.796 µM (active)	1.26 µM (inactive)	1.38 µM (inactive)	0.432 µM (active)	1.63 µM (inactive)	1.25 µM (inactive)	4.9 µM (inactive)	0.986 µM (active)	1.44 µM (inactive)	1.28 µM (inactive)
COc1cccc(Nc2nc(-c3cccs3)nc3cc(OC)c(OC)cc23)c1	18.9 µM (inactive)	21.6 µM (inactive)	25.9 µM (inactive)	35.8 µM (inactive)	26.4 µM (inactive)	26.6	42.1 µM (inactive)	24.8 µM (inactive)	35.2 µM (inactive)	24.5 µM (inactive)	31.3 µM (inactive)	68.9 µM (inactive)	37.6 µM (inactive)	18.9 µM (inactive)	31.9 µM (inactive)	23.9 µM (inactive)	53 µM (inactive)	23.8 µM (inactive)	36.8 µM (inactive)	51.8 µM (inactive)
COc1ccc(/C=C/c2nsc(/C=C/c3ccc(OC)cc3)n2)cc1	> 100 µM (inactive)	> 100 µM (inactive)	> 100 µM (inactive)	> 100 µM (inactive)	> 100 µM (inactive)	52.1	24.8 µM (inactive)	36.5 µM (inactive)	> 100 µM (inactive)	> 100 µM (inactive)	85.1 µM (inactive)	> 100 µM (inactive)	> 100 µM (inactive)	39.6 µM (inactive)	> 100 µM (inactive)	> 100 µM (inactive)	> 100 µM (inactive)	44.7 µM (inactive)	41.4 µM (inactive)	> 100 µM (inactive)
COC(=N)C1(C#N)NC(c2ccsc2)C(C#N)(C#N)NC1c1ccsc1 (stereo not given)	> 100 µM (inactive)	> 100 µM (inactive)	> 100 µM (inactive)	> 100 µM (inactive)	> 100 µM (inactive)	> 100	78.3 µM (inactive)	> 100 µM (inactive)	> 100 µM (inactive)	> 100 µM (inactive)	> 100 µM (inactive)	> 100 µM (inactive)	> 100 µM (inactive)	> 100 µM (inactive)	> 100 µM (inactive)	> 100 µM (inactive)	> 100 µM (inactive)	> 100 µM (inactive)	> 100 µM (inactive)	> 100 µM (inactive)
COc1ccc(N2C(=O)[C@H]3[C@H]4CC(C(C)(C)C)CC[C@H]4c4c(n(C)c5ccccc45)[C@H]3C2=O)cc1 (stereo not given in full)	> 46.5 µM (inactive)	> 100 µM (inactive)	> 100 µM (inactive)	> 46.5 µM (inactive)	> 100 µM (inactive)	5.62	> 90.6 µM (inactive)	> 100 µM (inactive)	> 100 µM (inactive)	> 46.5 µM (inactive)	> 100 µM (inactive)	> 100 µM (inactive)	> 100 µM (inactive)	> 10 µM (inactive)	> 10 µM (inactive)	> 100 µM (inactive)	> 100 µM (inactive)	> 56.2 µM (inactive)	> 100 µM (inactive)	> 100 µM (inactive)
CSc1ccn(C2CC(F)C(CO)O2)c(=O)n1 (stereo not given)	> 100 µM (inactive)	> 100 µM (inactive)	> 100 µM (inactive)	> 100 µM (inactive)	> 100 µM (inactive)	> 100	> 100 µM (inactive)	> 100 µM (inactive)	> 100 µM (inactive)	> 100 µM (inactive)	> 100 µM (inactive)	> 100 µM (inactive)	> 100 µM (inactive)	> 100 µM (inactive)	> 100 µM (inactive)	> 100 µM (inactive)	> 100 µM (inactive)	> 100 µM (inactive)	> 100 µM (inactive)	> 100 µM (inactive)
COC1(C)CCC(OS(C)(=O)=O)CO1 (stereo not given)	> 100 µM (inactive)	> 100 µM (inactive)	> 100 µM (inactive)	> 100 µM (inactive)	> 100 µM (inactive)	> 100	> 100 µM (inactive)	> 100 µM (inactive)	> 100 µM (inactive)	> 100 µM (inactive)	> 100 µM (inactive)	> 100 µM (inactive)	> 100 µM (inactive)	> 100 µM (inactive)	> 100 µM (inactive)	> 100 µM (inactive)	> 100 µM (inactive)	> 100 µM (inactive)	> 100 µM (inactive)	> 100 µM (inactive)
CCOC(=O)[C@@H]1CCN2CN(c3ccc(OC)cc3)N=C(c3ccccc3)[C@@]12c1ccccc1	21.6 µM (inactive)	24.8 µM (inactive)	21.4 µM (inactive)	29.4 µM (inactive)	16.7 µM (inactive)	23.9	6.7 µM (inactive)	17.1 µM (inactive)	20 µM (inactive)	20.7 µM (inactive)	26.5 µM (inactive)	16.6 µM (inactive)	14.7 µM (inactive)	17.5 µM (inactive)	32.2 µM (inactive)	22.7 µM (inactive)	44 µM (inactive)	28.9 µM (inactive)	19.4 µM (inactive)	17.8 µM (inactive)
C/C(=C\COP(=O)(O)OP(=O)(O)O)CCCCCCOCc1ccccc1	> 100 µM (inactive)	> 100 µM (inactive)	> 100 µM (inactive)	> 100 µM (inactive)	> 100 µM (inactive)	> 100	> 100 µM (inactive)	> 100 µM (inactive)	> 100 µM (inactive)	> 100 µM (inactive)	> 100 µM (inactive)	> 100 µM (inactive)	> 100 µM (inactive)	> 100 µM (inactive)	> 100 µM (inactive)	> 100 µM (inactive)	> 100 µM (inactive)	> 100 µM (inactive)	> 100 µM (inactive)	> 100 µM (inactive)
Cc1cc(O)c(C(C)C)cc1/N=C/c1ccccc1O	23.6 µM (inactive)	11.5 µM (inactive)	8.3 µM (inactive)	7.87 µM (inactive)	4 µM (inactive)	3.97	0.303 µM (active)	24.2 µM (inactive)	15.4 µM (inactive)	7.26 µM (inactive)	1.99 µM (inactive)	14.7 µM (inactive)	5.52 µM (inactive)	3.72 µM (inactive)	20.6 µM (inactive)	1.8 µM (inactive)	15.2 µM (inactive)	3.55 µM (inactive)	9.35 µM (inactive)	13.2 µM (inactive)
Cc1cc2c3ccccc3n(C)c2c2c1C(=O)C=CC2=O	17.8 µM (inactive)	20.9 µM (inactive)	13.9 µM (inactive)	12 µM (inactive)	20 µM (inactive)	9.33	5.24 µM (inactive)	9.62 µM (inactive)	17.8 µM (inactive)	4.3 µM (inactive)	18.9 µM (inactive)	20 µM (inactive)	21.2 µM (inactive)	16.1 µM (inactive)	21.1 µM (inactive)	24.8 µM (inactive)	21.1 µM (inactive)	17.3 µM (inactive)	13.2 µM (inactive)	21.8 µM (inactive)
O=C1c2ccccc2CC12Cc1ccc3c(c1C2)CCC3 (stereo not given)	85.3 µM (inactive)	22.6 µM (inactive)	35.8 µM (inactive)	16.9 µM (inactive)	16.9 µM (inactive)	14.6	12.6 µM (inactive)	13.3 µM (inactive)	19.1 µM (inactive)	16.9 µM (inactive)	16.1 µM (inactive)	13.6 µM (inactive)	22.8 µM (inactive)	4.54 µM (inactive)	17.2 µM (inactive)	28.8 µM (inactive)	33.3 µM (inactive)	16.9 µM (inactive)	11.7 µM (inactive)	23.4 µM (inactive)
C=C1C2CCC3C4(C)CCCC(C)(C(=O)O)C4CCC3(C2)C1OC(=O)/C(C)=C/C (stereo not given)	25.3 µM (inactive)	36.1 µM (inactive)	41.8 µM (inactive)	35.1 µM (inactive)	38.5 µM (inactive)	22.9	29.9 µM (inactive)	33.4 µM (inactive)	20.8 µM (inactive)	32.7 µM (inactive)	34 µM (inactive)	30 µM (inactive)	36 µM (inactive)	31.8 µM (inactive)	28.4 µM (inactive)	32.7 µM (inactive)	27.5 µM (inactive)	30.7 µM (inactive)	39.7 µM (inactive)	21 µM (inactive)
COc1cc2c(cc1OC)[C@H]1C(=O)c3cc4c(cc3[C@H]1N(C)C2=O)OCO4	8.43 µM (inactive)	0.682 µM (active)	> 49.4 µM (inactive)	> 100 µM (inactive)	2.22 µM (inactive)	14.7	1.77 µM (inactive)	5.27 µM (inactive)	2.92 µM (inactive)	2.4 µM (inactive)	16.6 µM (inactive)	7.53 µM (inactive)	1.81 µM (inactive)	1.06 µM (active)	> 100 µM (inactive)	30.4 µM (inactive)	6.7 µM (inactive)	1.03 µM (active)	6.32 µM (inactive)	1.42 µM (inactive)

Reference: ChEMBL document CHEMBL1201862, “PubChem BioAssay data set” (2004)
